From US9186318B2, “Quinolyl-containing hydroxamic acid compound and preparation method thereof, and pharmaceutical composition containing this compound and use thereof” (Beijing Konruns Pharmaceutical Co., Ltd, priority 2011, dated 2015)

Columns and labels:
Assay in all cases: KinomeScan 96-kinase panel
Type in all cases: binding
Conditions in all cases: compound concentration 1000 nM
IKK-alpha = IKK-alpha (Homo sapiens (Human), UniProt O15111)
From the text: (§1) The details of the screening technology were described in Fabian, M. A. et al, Nat., Biotechnol. 2005, 23, 329 and Karaman, M. W. et al, Nat., Biotechnol. 2008, 26, 127. From the above representative results, it can be seen that the compounds of the present invention have potent inhibitory activities on kinases including ALK, AXL, VEGFR2, PDGFR-α, PDGFR-β, c-KIT, Flt3, MEK1, MEK2, CSF1R, EPHA2, EPHA2, MKNK2, SRC, TIE2 and their mutants. Accordingly, the compounds of the present invention can be used for the treatment of diseases caused by abnormal activities of these kinases, e.g., cancer, psoriasis, hepatic cirrhosis, diabetes, diseases involving angiogenesis, eye diseases, immune system diseases, cardiovascular diseases, and so forth.

[1] = biological target: JAK2 (JH1domain-catalytic) (Homo sapiens (Human), UniProt O60674)
From the text: as §1

DCAMKL1 = DCAMKL1 (Homo sapiens (Human), UniProt O15075)
Sequence of DCAMKL1 (O15075 whole entry): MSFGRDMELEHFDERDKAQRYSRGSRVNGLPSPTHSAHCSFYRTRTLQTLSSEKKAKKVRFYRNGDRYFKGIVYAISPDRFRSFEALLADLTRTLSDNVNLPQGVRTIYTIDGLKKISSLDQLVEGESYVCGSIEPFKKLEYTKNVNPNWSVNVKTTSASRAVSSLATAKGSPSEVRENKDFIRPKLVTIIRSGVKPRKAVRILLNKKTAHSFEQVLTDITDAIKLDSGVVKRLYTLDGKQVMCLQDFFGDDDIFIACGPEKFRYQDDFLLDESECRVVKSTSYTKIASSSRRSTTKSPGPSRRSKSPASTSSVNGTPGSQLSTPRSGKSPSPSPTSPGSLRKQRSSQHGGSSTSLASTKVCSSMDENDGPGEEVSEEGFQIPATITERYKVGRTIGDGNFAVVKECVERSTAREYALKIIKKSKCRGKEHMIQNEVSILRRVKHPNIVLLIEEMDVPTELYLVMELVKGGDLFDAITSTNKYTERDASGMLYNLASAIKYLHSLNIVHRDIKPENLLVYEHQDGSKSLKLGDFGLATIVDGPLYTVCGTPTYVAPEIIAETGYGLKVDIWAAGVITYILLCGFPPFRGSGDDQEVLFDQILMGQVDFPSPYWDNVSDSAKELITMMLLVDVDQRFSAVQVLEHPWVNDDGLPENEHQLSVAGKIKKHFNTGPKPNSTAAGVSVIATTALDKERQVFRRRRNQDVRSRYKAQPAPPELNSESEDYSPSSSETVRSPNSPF
From the text: as §1

TSSK1B = TSSK1B (Homo sapiens (Human), UniProt Q9BXA7)
From the text: as §1

CDK3 = CDK3 (Homo sapiens (Human), UniProt Q00526)
Sequence of CDK3 (Q00526 whole entry): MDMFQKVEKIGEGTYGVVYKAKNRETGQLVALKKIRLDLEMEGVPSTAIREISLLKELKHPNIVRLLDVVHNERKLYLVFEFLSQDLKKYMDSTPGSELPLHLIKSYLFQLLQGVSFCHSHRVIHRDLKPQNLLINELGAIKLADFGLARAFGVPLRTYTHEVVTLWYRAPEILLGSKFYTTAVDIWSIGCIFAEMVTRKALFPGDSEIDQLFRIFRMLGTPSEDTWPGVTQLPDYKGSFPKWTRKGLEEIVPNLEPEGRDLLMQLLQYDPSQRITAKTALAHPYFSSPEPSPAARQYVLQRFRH
From the text: as §1

PIK3C2B = PIK3C2B (Homo sapiens (Human), UniProt O00750)
From the text: as §1

MEK1 = MEK1 (Homo sapiens (Human), UniProt Q02750)
Sequence of MEK1 (Q02750 whole entry): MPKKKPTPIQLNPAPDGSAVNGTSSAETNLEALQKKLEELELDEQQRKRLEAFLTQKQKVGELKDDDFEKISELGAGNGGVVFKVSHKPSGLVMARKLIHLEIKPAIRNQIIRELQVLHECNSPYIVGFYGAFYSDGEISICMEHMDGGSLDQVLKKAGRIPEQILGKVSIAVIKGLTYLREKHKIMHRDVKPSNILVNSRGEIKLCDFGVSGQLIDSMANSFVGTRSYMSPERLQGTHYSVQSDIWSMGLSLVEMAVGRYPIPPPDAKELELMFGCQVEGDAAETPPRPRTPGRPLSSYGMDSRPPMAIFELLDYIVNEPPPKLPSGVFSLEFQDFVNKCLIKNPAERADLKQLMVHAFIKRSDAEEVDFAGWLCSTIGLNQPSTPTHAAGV
From the text: as §1

FLT3 = FLT3 (Homo sapiens (Human), UniProt P36888)
From the text: as §1

PLK1 = PLK1 (Homo sapiens (Human), UniProt P53350)
From the text: as §1

IKK-beta = IKK-beta (Homo sapiens (Human), UniProt O14920)
Sequence of IKK-beta (O14920 whole entry): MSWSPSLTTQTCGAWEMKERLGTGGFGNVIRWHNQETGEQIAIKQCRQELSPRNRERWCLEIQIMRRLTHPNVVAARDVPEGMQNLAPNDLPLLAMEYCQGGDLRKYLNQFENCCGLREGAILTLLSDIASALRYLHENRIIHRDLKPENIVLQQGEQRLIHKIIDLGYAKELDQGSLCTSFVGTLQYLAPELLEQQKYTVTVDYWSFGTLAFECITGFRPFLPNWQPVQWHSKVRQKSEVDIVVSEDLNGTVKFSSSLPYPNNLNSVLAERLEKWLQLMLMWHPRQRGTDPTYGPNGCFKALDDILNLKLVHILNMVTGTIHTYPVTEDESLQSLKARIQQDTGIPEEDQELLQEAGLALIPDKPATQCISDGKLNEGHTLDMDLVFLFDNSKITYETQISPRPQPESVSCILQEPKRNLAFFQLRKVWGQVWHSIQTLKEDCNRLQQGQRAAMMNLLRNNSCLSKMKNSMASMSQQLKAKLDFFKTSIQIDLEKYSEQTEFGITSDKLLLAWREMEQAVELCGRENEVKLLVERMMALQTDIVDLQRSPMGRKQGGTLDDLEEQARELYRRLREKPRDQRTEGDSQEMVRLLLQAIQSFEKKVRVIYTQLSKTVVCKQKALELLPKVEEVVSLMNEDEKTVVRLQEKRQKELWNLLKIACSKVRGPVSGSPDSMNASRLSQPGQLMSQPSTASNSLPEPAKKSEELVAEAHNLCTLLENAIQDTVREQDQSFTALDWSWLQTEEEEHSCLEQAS
From the text: as §1

[2] = biological target: JAK3 (JH1domain-catalytic) (Homo sapiens (Human), UniProt P52333)
From the text: as §1

AXL = AXL (Homo sapiens (Human), UniProt P30530)
From the text: as §1

TRKA = TRKA (Homo sapiens (Human), UniProt P04629)
From the text: as §1

RIOK2 = RIOK2 (Homo sapiens (Human), UniProt Q9BVS4)
From the text: as §1

KIT (D816V) = KIT (D816V) (Homo sapiens (Human), UniProt P10721, D816V)
Sequence of KIT (D816V) (P10721 26-976 D816V): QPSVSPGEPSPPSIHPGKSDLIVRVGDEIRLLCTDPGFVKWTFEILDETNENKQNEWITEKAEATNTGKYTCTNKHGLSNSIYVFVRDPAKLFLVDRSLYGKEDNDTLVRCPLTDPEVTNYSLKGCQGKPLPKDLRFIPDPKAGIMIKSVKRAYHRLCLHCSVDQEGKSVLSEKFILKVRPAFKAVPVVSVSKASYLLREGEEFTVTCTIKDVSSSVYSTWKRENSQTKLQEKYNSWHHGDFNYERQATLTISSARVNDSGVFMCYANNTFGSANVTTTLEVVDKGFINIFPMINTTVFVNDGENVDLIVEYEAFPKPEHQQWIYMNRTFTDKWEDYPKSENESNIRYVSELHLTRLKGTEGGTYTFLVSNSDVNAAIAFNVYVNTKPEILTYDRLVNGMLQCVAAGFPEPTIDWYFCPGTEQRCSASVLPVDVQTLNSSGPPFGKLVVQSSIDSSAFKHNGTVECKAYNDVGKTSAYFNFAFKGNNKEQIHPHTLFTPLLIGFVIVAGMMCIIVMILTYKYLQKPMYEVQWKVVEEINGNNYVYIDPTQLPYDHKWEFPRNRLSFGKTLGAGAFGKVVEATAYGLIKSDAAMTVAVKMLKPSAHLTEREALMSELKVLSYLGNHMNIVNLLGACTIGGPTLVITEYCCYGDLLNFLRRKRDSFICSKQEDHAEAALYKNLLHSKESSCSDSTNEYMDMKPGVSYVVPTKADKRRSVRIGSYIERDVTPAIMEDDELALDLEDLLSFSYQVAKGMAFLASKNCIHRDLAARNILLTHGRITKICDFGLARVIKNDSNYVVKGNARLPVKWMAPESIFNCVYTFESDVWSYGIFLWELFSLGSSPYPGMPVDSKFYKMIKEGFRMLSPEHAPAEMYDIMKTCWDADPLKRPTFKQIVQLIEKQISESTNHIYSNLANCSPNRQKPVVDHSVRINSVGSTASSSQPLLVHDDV
From the text: as §1

JNK2 = JNK2 (Homo sapiens (Human), UniProt P45984)
From the text: as §1

PAK1 = PAK1 (Homo sapiens (Human), UniProt Q13153)
Sequence of PAK1 (Q13153 whole entry): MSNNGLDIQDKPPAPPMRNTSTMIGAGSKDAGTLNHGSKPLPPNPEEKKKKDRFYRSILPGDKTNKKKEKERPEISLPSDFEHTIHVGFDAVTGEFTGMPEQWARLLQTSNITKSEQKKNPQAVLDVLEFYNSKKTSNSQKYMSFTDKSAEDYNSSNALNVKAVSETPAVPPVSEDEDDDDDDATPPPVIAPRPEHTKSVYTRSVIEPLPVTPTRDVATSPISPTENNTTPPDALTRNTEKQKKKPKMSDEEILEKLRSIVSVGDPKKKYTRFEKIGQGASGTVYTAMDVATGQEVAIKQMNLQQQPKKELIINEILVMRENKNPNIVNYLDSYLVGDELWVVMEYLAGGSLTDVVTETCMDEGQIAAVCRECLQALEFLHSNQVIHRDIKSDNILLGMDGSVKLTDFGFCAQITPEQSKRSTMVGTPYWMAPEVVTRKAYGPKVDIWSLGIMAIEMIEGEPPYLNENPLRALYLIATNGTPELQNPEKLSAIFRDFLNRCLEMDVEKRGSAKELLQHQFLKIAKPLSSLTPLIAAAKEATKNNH
From the text: as §1

PLK3 = PLK3 (Homo sapiens (Human), UniProt Q9H4B4)
From the text: as §1

[3] = biological target: RSK2 (Kin.Dom.1-N-terminal) (Homo sapiens (Human), UniProt P51812)
From the text: as §1

p38-beta = p38-beta (Homo sapiens (Human), UniProt Q15759)
From the text: as §1

MKNK1 = MKNK1 (Homo sapiens (Human), UniProt Q9BUB5)
From the text: as §1

CDK2 = CDK2 (Homo sapiens (Human), UniProt P24941)
From the text: as §1

PKAC-alpha = PKAC-alpha (Homo sapiens (Human), UniProt P17612)
From the text: as §1

GSK3B = GSK3B (Homo sapiens (Human), UniProt P49841)
From the text: as §1

CDK9 = CDK9 (Homo sapiens (Human), UniProt P50750)
From the text: as §1

BRAF(V600E) = BRAF(V600E) (Homo sapiens (Human), UniProt P15056, V600E)
From the text: as §1

ULK2 = ULK2 (Homo sapiens (Human), UniProt Q8IYT8)
From the text: as §1

RET = RET (Homo sapiens (Human), UniProt P07949)
From the text: as §1

ERK1 = ERK1 (Homo sapiens (Human), UniProt P27361)
Sequence of ERK1 (P27361 whole entry): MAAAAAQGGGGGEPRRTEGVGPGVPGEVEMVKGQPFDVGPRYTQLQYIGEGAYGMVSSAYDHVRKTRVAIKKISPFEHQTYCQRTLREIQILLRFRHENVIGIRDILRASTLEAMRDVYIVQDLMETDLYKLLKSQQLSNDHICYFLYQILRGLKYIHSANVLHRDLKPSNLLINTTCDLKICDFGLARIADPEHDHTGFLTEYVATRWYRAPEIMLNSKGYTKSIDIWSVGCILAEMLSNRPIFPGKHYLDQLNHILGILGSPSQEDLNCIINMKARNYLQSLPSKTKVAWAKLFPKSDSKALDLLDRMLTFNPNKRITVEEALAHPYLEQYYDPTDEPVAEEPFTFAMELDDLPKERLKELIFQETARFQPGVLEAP
From the text: as §1

CSNK1G2 = CSNK1G2 (Homo sapiens (Human), UniProt P78368)
Sequence of CSNK1G2 (P78368 whole entry): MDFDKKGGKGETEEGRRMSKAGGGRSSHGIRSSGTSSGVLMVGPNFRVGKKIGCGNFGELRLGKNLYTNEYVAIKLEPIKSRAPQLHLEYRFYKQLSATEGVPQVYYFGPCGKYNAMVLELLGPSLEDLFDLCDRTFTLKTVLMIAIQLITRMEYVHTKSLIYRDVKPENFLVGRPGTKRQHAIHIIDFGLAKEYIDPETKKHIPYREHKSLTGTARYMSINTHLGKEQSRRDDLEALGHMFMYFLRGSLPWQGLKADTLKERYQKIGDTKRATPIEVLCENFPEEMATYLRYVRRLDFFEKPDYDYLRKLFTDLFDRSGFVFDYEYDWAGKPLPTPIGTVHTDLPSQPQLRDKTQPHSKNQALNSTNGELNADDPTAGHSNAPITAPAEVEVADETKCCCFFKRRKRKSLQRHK
From the text: as §1

SRPK3 = SRPK3 (Homo sapiens (Human), UniProt Q9UPE1)
From the text: as §1

ZAP70 = ZAP70 (Homo sapiens (Human), UniProt P43403)
From the text: as §1

KIT = KIT (Homo sapiens (Human), UniProt P10721)
Sequence of KIT (P10721 26-976): as the sequence (P10721 26-976 D816V) above, with V791D counted along it
From the text: as §1

TGFBR1 = TGFBR1 (Homo sapiens (Human), UniProt P36897)
Sequence of TGFBR1 (P36897 34-503): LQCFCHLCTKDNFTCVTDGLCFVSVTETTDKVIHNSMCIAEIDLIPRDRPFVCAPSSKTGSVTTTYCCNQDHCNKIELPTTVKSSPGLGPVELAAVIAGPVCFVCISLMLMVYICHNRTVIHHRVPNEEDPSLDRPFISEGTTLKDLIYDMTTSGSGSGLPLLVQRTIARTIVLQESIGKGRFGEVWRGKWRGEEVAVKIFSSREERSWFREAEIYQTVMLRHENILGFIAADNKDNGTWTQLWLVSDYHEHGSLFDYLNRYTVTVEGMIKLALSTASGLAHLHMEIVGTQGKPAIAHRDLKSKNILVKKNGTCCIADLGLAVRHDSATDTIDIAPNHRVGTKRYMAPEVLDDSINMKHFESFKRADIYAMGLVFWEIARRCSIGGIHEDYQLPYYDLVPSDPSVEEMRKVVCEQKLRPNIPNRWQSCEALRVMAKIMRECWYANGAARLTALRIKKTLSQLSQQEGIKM
From the text: as §1

YANK3 = YANK3 (Homo sapiens (Human), UniProt Q86UX6)
From the text: as §1

ALK = ALK (Homo sapiens (Human), UniProt Q9UM73)
From the text: as §1

MAP3K4 = MAP3K4 (Homo sapiens (Human), UniProt Q9Y6R4)
From the text: as §1

% Ctrl@1000 nM (IKK-alpha): 100 % Ctrl
% Ctrl@1000 nM [1]: 64 % Ctrl
% Ctrl@1000 nM (DCAMKL1): 100 % Ctrl
% Ctrl@1000 nM (TSSK1B): 50 % Ctrl
% Ctrl@1000 nM (CDK3): 100 % Ctrl
% Ctrl@1000 nM (PIK3C2B): 99 % Ctrl
% Ctrl@1000 nM (MEK1): 0.95 % Ctrl
% Ctrl@1000 nM (FLT3): 0.85 % Ctrl
% Ctrl@1000 nM (PLK1): 100 % Ctrl
% Ctrl@1000 nM (IKK-beta): 78 % Ctrl
% Ctrl@1000 nM [2]: 76 % Ctrl
% Ctrl@1000 nM (AXL): 1.2 % Ctrl
% Ctrl@1000 nM (TRKA): 0.5 % Ctrl
% Ctrl@1000 nM (RIOK2): 100 % Ctrl
% Ctrl@1000 nM (KIT (D816V)): 2.2 % Ctrl
% Ctrl@1000 nM (JNK2): 62 % Ctrl
% Ctrl@1000 nM (PAK1): 66 % Ctrl
% Ctrl@1000 nM (PLK3): 100 % Ctrl
% Ctrl@1000 nM [3]: 96 % Ctrl
% Ctrl@1000 nM (p38-beta): 78 % Ctrl
% Ctrl@1000 nM (MKNK1): 8.8 % Ctrl
% Ctrl@1000 nM (CDK2): 73 % Ctrl
% Ctrl@1000 nM (PKAC-alpha): 100 % Ctrl
% Ctrl@1000 nM (GSK3B): 100 % Ctrl
% Ctrl@1000 nM (CDK9): 67 % Ctrl
% Ctrl@1000 nM (BRAF(V600E)): 88 % Ctrl
% Ctrl@1000 nM (ULK2): 100 % Ctrl
% Ctrl@1000 nM (RET): 0 % Ctrl
% Ctrl@1000 nM (ERK1): 94 % Ctrl
% Ctrl@1000 nM (CSNK1G2): 99 % Ctrl
% Ctrl@1000 nM (SRPK3): 76 % Ctrl
% Ctrl@1000 nM (ZAP70): 80 % Ctrl
% Ctrl@1000 nM (KIT): 0 % Ctrl
% Ctrl@1000 nM (TGFBR1): 85 % Ctrl
% Ctrl@1000 nM (YANK3): 84 % Ctrl
% Ctrl@1000 nM (ALK): 1.2 % Ctrl
% Ctrl@1000 nM (MAP3K4): 100 % Ctrl
Compound: COc1cc2c(Oc3ccc(NC(=O)C4(C(=O)Nc5ccc(F)cc5)CC4)cc3F)ccnc2cc1OCCCCCC(=O)NO [Example 13, N1′-[3-fluoro-4-[[7-[6-(hydroxyamino)-6-oxohexyloxy]-6-methoxy-4-quinolyl]oxy]phenyl]-N1-(4-fluorophenyl)cyclopropane-1,1-dicarboxamide]
